Experimental data as given in patent publication US20090209587A1, “REPAGLINIDE FORMULATIONS” (priority 2008, published 2009).

Assays:
[1] = Bulk/tapped density (USP Test 616), compressibility index and particle size distribution of repaglinide; type: physicochemical
From the text: The percentages of particles with different sizes that exist in a total powder is the particle size distribution. It is represented in certain ways. Particle size is the maximum dimension of a particle, frequently expressed in μm. Particle size distributions can be expressed in terms of, D10, D50, D90 and D[4,3]. The D10, D50 and D90 represent the 10th, median or the 50th percentile, and the 90th percentile of the particle size distribution, respectively, as measured by volume. That is, the D10, D50, D90 are values of the distribution such that 10%, 50%, or 90% of the particles have a volume of this value or less, or is the percentage of particles smaller than that size. D50 is also known as median diameter of particle. It is one of the important parameters representing characteristics of particles of powders. For a sample, if D50=5 μm, it means that 50% of the particles are smaller than 5 μm. Similarly if D10=5 μm, 10% of the particles are less than or equal to 5 μm, and if D90=5 μm, 90% of the particles have sizes less than or equal to 5 μm. D[4,3] represents the volume moment mean of the particles, or the volume weighted particle size. Densities were determined according to USP Test 616 “Bulk Density and Tapped Density,” and compressibility index is percentage change in volume induced by tapping a sample of fixed mass.

[2] = cited from earlier work

With CCOc1cc(CC(=O)N[C@@H](CC(C)C)c2ccccc2N2CCCCC2)ccc1C(=O)O [Repaglinide, S-(+)-2-Ethoxy-4-(2((3-methyl-1-(2-(1-piperidinyl)phenyl)butyl)amino)2-oxoethyl) benzoic acid] the “Particle size distribution D10” value [1] was 2 μm, the “Particle size distribution D50” value [1] was <4 μm and the “Particle size distribution D90” value [1] was <7 μm. For the same molecule, the Bulk density ([1]; USP Test 616) was 0.176 g/mL, the Tapped density ([1]; USP Test 616) was 0.247 g/mL and the Compressibility index ([1]; percentage change in volume induced by tapping) was 29.95. For the same molecule, the solubility in methanol ([2]; methanol) was “freely soluble”, the “solubility in methylene chloride” value ([2]; methylene chloride) was “freely soluble” and the solubility in water ([2]; water) was “practically insoluble”.
